Reference: US8772348B2, “Materials and methods for pest control” (priority 2009, dated 2014)
Where two headings read alike, the source gives them in different places.

Experiments:
[1] = test system: Field-collected Musca domestica
Protocol: Briefly, one Musca domestica strain is collected from the University of Florida dairy unit in Alachua County, Florida, U.S.A. (“the Alachua strain”). The other Musca domestica strain is collected from a dairy farm in Gilchrist County, Florida, U.S.A. (“the Gilchrist strain”). Both strains are colonized adults, and are subsequently reared at 27° C. in the laboratory of the Entomology and Nematology Department, University of Florida.
The positive control is exposed to serial dilutions of permethrin. The negative control is not exposed to any chemical compound. 1 mL of insecticide was dissolved in acetone (concentrations between 0.5 and 20 mg mL^−1) in a 60 mL glass jar having a 67.86 cm^2 inside surface area (Wheaton, Millville, N.J.). Jars were allowed to dry for 1 h prior to fly introduction. Flies were held in jars for 2, 4 and 24 h, and fly mortality rate was scored at that time. Sugar water (10%) was provided in all assays, unless stated otherwise. The mortality rate is measured after a 2-hour, 4-hour, and 24-hour period. Ataxic flies are considered dead. The mortality rate and the LC values are determined using the same procedures as is illustrated in Example 2.

[2] = test system: Aedes albopictus; conditions: for mortality at the 24-hour examination: 24-hour exposure
Description: (§1) Briefly, Anopheles quadrimaculatus (Say) is obtained from the United States Department of Agriculture, ARS, Center for Medical, Agricultural and Veterinary Entomology, Gainesville, Fla., and adults are held in the laboratory of the Entomology and Nematology Department, University of Florida with no insecticide exposure or introduction of other insects. The Asian tiger mosquito, Ae. albopictus (Skuse) is obtained from a laboratory colony of the Entomology and Nematology Department, University of Florida.
(§2) Each strain is divided into four sets: three sets as the experiment and the other set as the control. […] The mortality rate is measured after a 2-hour, 4-hour, and 24-hour exposure period. Ataxic mosquitoes are considered dead. The mortality rate and the LC values are determined using the same procedures as is illustrated in Example 2.

[3] = test system: Anopheles quadrimaculatus; conditions: for mortality at the 24-hour examination: 24-hour exposure
Description: as §1, §2

[4] = test system: Stomoxys calcitrans
Protocol: Briefly, one Stomoxys calcitrans strain is collected from the University of Florida dairy unit in Alachua County, Florida, U.S.A. (“the Alachua strain”) and subsequently reared at 27° C. in the laboratory of the Entomology and Nematology Department, University of Florida.
Each strain is divided into four sets: three sets as the experimental treatments and the other set as the control. […] The control set is not exposed to any chemical compound. The mortality rate is measured after a 2-hour, 4-hour, and 24-hour period. Ataxic flies are considered dead. The mortality rate and the LC values are determined using the same procedures as is illustrated in Example 2.

[5] = test system: Stomoxys calcitrans; remark: listed apart in the source
Protocol: Briefly, each fly strain is divided into eight sets: three sets as the experiment, four sets as the positive control, and one set as the negative control. Flies are assayed on unpainted plywood panel boards that have been previously exposed to natural summer weather conditions for at least 10 days. […] The positive control set is treated with permethrin, geranyl acetone, rosalva or citronellol. The negative control set is treated with water. The formulation is applied at a uniform rate of 7.5 ml per 225 cm^2, sufficient to cover the entire panel without dripping. Subsequently, the treated panel boards are dried for about an hour.
In each set, 20 adult flies are placed onto the panel boards. Flies are secured with wooden embroidery hoops, covered with a coarse mesh screen cloth previously sprayed with the respective formulation. After 4 hours, flies are transferred into a clean jar. The mortality rate is measured 24 hours after the transfer, and is determined using the same procedures as are illustrated in Example 2.
(§3) Plywood panels (225 cm^2) were treated with chemicals at a rate of 1.67 mgcm^−2. Panels were treated on day 0 and held until exposure on post-treatment day. Mosquitoes were exposed to chemicals for 2 h, and mortality rate was assessed 24 h after initial exposure. Control contained formulation ingredients without semiochemicals.

[6] = test system: Susceptible Musca domestica; test: Contact bioassay of emulsified concentrate formulations on filter paper discs; conditions: EC formulation on filter paper
Protocol: A commercially-available permethrin 57 g L^−1 EC (Ectiban EC 57; Universal Cooperatives, Minneapolis, Minn.) was included for comparison. Except rosalva, the 50% EC semiochemical formulations were generated by combining 500 mL AI, 430 mL canola oil (Publix, Lakeland, Fla.), 10 mL xylene, 50 mL Triton X-100 (Acros Organics Nev., Fair Lawn, N.J.) and 10 mL Agsolex-8 (International Specialty Products, Wayne, N.J.). The rosalva formulation contained all of the above-mentioned ingredients, with canola oil concentration reduced to 400 mL L^−1, Triton X-100 concentration increased to 75 mL L^−1, and 5 mL L^−1 Antifoam B silicone emulsion (Mallinckrodt Baker, Phillipsburg, N.Y.) included.
Briefly, Whatman No. 1 filter paper discs (63.58 cm^2) are impregnated with 1.5 ml serially diluted formulations in 20 emulsified concentrates and 50 emulsified concentrates, respectively, and subsequently dried for about an hour. Then, house flies are divided into seven sets: three sets as the experiment, three sets as the positive control, and one set as the negative control. Each set consists of twenty six-to-ten-day old adult flies. […] The positive control set is exposed to paper discs impregnated with geranyl acetone, rosalva or citronellol. The negative control set is exposed to paper discs impregnated with acetone solution. Throughout the exposure periods, each set is provided with 10% sucrose solution and sufficient air circulation. Ataxic flies are considered dead. The mortality rate and the LC values are determined using the same procedures as is illustrated in Example 2.

[7] = test system: Musca domestica; conditions: formulation on plywood panels, 3.33 mg cm^−2 (footnote 1.67), 2 h exposure, mortality 24 h after
Protocol: Briefly, after Musca domestica is exposed to formulations at concentration of 3.33 mg cm^−2 for 2 hours, each set is transferred into a separate glass jar, and held for another 24 hours.
as §3, with “of 1.67 mg cm^−2. Panels were” for “of 1.67 mgcm^−2. Panels were”, “0 and was held until” for “0 and held until”

[8] = Alachua strain, 2 h constant exposure
[9] = Alachua strain, 4 h constant exposure
[10] = Alachua strain, 24 h constant exposure
[11] = Gilchrist strain, 2 h constant exposure
[12] = Gilchrist strain, 4 h constant exposure
[13] = Gilchrist strain, 24 h constant exposure

Work on `C/C=C/C(=O)C1=C(C)CCCC1(C)C` [Beta damascone, beta damascone] yielded an LC90 [1, 8] of 136.39 μg cm^−2, an LC90 [1, 9] of 124.69 μg cm^−2 and an LC90 [1, 10] of 47.00 μg cm^−2. For the same compound, the LC90 [1, 11] was 126.00 μg cm^−2, the LC90 [1, 12] was 70.59 μg cm^−2 and the LC90 [1, 13] was 56.21 μg cm^−2. The “mortality at the 24-hour examination” value [2] was “All mosquitoes were dead”, the “mortality at the 24-hour examination” value [3] was “All mosquitoes were dead” and the LC90 ([4]; 2 h constant exposure) was 34.57 μg cm^−2. For the same compound, the LC90 ([4]; 4 h constant exposure) was 29.68 μg cm^−2, the LC90 ([4]; 24 h constant exposure) was 20.33 μg cm^−2 and the mortality rate ([5]; in vivo) was 99-100%. The LC90 ([6]; 24 h constant exposure) was 618.12 μg cm^−2 and the LC90 ([6]; 48 h constant exposure) was 516.16 μg cm^−2.

Compound `CC1(C)CCCC2=C1CC(C=O)CC2` (stereo not shown) [Cyclemone A, 2-naphthaldehyde, 1,2,3,4,5,6,7,8-octahydro-8,8-dimethyl] has an LC50 [1, 8] of 54.46 μg cm^−2, an LC90 [1, 8] of 74.41 μg cm^−2 and an LC50 [1, 9] of 52.60 μg cm^−2. It also gave an LC90 [1, 9] of 69.96 μg cm^−2, an LC50 [1, 10] of 32.29 μg cm^−2 and an LC90 [1, 10] of 51.09 μg cm^−2. The LC50 [1, 11] was 54.11 μg cm^−2, the LC90 [1, 11] was 72.60 μg cm^−2 and the LC50 [1, 12] was 46.52 μg cm^−2. It also gave an LC90 [1, 12] of 79.28 μg cm^−2, an LC50 [1, 13] of 32.32 μg cm^−2 and an LC90 [1, 13] of 51.58 μg cm^−2. The “mortality at the 24-hour examination” value [2] was “All mosquitoes were dead”, the LC50 ([2]; 2 h constant exposure) was 19.88 μg cm^−2 and the LC50 ([2]; 4 h constant exposure) was 18.72 μg cm^−2. The “mortality at the 24-hour examination” value [3] was “All mosquitoes were dead”, the LC50 ([3]; 2 h constant exposure) was 14.29 μg cm^−2 and the LC50 ([3]; 4 h constant exposure) was 12.27 μg cm^−2. For the same compound, the LC50 ([4]; 2 h constant exposure) was 19.52 μg cm^−2, the LC90 ([4]; 2 h constant exposure) was 31.31 μg cm^−2 and the LC50 ([4]; 4 h constant exposure) was 18.18 μg cm^−2. The LC90 ([4]; 4 h constant exposure) was 32.38 μg cm^−2, the LC50 ([4]; 24 h constant exposure) was 14.82 μg cm^−2 and the LC90 ([4]; 24 h constant exposure) was 27.10 μg cm^−2. For the same compound, the “% mortality” value ([5]; S. calcitrans, formulation on plywood panels at 1.67 mg cm^−2, mortality 24 h after) was 100.00a %, the LC50 ([6]; 24 h constant exposure) was 468.96 μg cm^−2 and the LC90 ([6]; 24 h constant exposure) was 759.00 μg cm^−2. For the same compound, the LC50 ([6]; 48 h constant exposure) was 440.04 μg cm^−2, the LC90 ([6]; 48 h constant exposure) was 659.92 μg cm^−2 and the “% mortality on various days following treatment” value ([7]; day 1) was 100.00a %. For the same compound, the “% mortality on various days following treatment” value ([7]; day 2) was 49.25b %, the “% mortality on various days following treatment” value ([7]; day 3) was 48.25b % and the “% mortality on various days following treatment” value ([7]; day 5) was 27.75c %. For the same compound, the “% mortality on various days following treatment” value ([7]; day 7) was 18.75b % and the “% mortality on various days following treatment” value ([7]; day 14) was 9.00b %.
